The source of these data is patent US6166033A, “2-carbonylthiazole derivatives and use of the same” (priority 1996, dated 2000).

Molecules are shown by their SMILES. Counter-ions that a name gives are not always drawn.

For one data set, the system named is dopamine D4 receptor. Particulars: literature; cited from earlier work.
A further data set deals with schizophrenia. Particulars: clinical, literature, cited from earlier work.
The conditions of data set [1]: literature; cited from earlier work.
For a further data set, the target named is T1, human D4.2 receptor (Homo sapiens, UniProt P21917, DEL265-296).
T1 construct: expressed in transfected cells; host or cells: Chinese hamster ovary (CHO) cells, membranes
T1 sequence (P21917 with tags, fused parts or gaps DEL265-296): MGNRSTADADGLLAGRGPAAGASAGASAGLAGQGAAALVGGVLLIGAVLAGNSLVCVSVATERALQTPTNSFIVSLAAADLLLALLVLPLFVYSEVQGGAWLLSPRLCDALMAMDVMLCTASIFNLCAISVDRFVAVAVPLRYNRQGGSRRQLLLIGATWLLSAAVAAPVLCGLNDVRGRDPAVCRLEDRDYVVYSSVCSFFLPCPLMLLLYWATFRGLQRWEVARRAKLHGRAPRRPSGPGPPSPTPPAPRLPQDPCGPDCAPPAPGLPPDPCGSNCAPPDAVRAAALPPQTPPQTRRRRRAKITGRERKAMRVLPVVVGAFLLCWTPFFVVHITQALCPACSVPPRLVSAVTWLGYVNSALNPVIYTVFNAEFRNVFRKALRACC
The data set is described as follows: Dopamine D4 receptor binding test ([3H] spiperone). The settings on record: human D4.2 receptor in CHO cell membrane; [3H] spiperone 0.5 nM; 2 hours at 27° C., pH 7.4. The procedure: 1. Dopamine D4 receptor binding test
Chinese hamster ovary (CHO) cell membrane, in which human D4.2 receptor was expressed, was used as a receptor sample.
[^3 H] Spiperone was used as a [^3 H]-labeled ligand.
The binding reaction using the [^3 H]-labeled ligand was carried out by the following method described in Eur. J. Pharmacol., 233, 173 (1993).
Human D4.2 receptor binding test: The CHO cell membrane, in which human D4.2 receptor has been expressed, [^3 H] spiperone (0.5 nM) and each test compound were allowed to undergo 2 hours of reaction at 27° C. in 50 mM Tris-HCl buffer (pH 7.4) containing 5 mM EDTA, 1.5 mM CaCl2, 5 mM KCl and 120 mM NaCl.
After completion of the reaction, the reaction solution was filtered by suction through a glass filter (GF/B), and radioactivity on the filter paper was measured using a liquid scintillation spectrometer.
The binding when the reaction was carried out in the presence of 10 μM haloperidol was defined as non-specific binding of [^3 H] spiperone, and the difference between total binding and non-specific binding was defined as specific binding. An inhibition curve was obtained by allowing a fixed concentration of [^3 H] spiperone to react with varied concentration of each compound to be tested under the aforementioned conditions, and the concentration of each test compound which inhibits 50% of the [^3 H] spiperone binding (IC50) was calculated from the inhibition curve, with the results shown in Table 3.

Another data set addresses Dopamine D2 receptor (Rattus norvegicus, UniProt P61169). The data set is described as follows: Dopamine D2 receptor binding test ([3H] raclopride). Particulars: rat striate body membrane; [3H] raclopride 1 nM; 1 hour at 25° C.

Dopamine D2 receptor, sequence (P61169 whole entry): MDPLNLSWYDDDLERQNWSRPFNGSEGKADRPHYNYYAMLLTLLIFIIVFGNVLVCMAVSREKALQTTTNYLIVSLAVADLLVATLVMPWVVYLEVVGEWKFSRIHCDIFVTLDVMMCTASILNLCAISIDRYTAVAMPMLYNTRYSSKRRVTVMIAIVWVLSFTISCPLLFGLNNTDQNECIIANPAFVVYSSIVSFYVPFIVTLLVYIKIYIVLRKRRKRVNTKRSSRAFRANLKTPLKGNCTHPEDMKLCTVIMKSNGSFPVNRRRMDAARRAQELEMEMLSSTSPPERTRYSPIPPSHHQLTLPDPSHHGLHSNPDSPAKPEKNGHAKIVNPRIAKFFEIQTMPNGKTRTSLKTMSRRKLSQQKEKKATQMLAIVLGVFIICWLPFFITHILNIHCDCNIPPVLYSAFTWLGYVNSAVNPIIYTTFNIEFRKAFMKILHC

With `CN1CCN(C2=Nc3cc(Cl)ccc3Nc3ccccc32)CC1` [Clozapine], the “affinity for dopamine D4 receptor relative to dopamine D2 receptor” value in the data set with dopamine D4 receptor was “higher than its affinity for dopamine D2 receptor”. Further, the efficacy in schizophrenia result with schizophrenia was “effective in drug-resistant schizophrenia and negative symptoms”. Besides, the extrapyramidal disorders result in the data set with schizophrenia (unlike dopamine D2 receptor antagonists) is listed as “causes less extrapyramidal disorders”. For the same compound, the hemotoxicity entry in data set [1] is given as “generates a hemotoxin as agranulocytosis which resulted in certain mortal cases”.

For the compound `NC(=O)c1nc(-c2ccc(F)cc2)c(CCN2CCC(=Cc3ccc(F)cc3)CC2)s1` [Compound A-02], the half-maximal inhibitory concentration (IC50) – broadly, the concentration at which inhibition is half-maximal – on human D4.2 receptor was 5.46 nM; on Dopamine D2 receptor, ≥ 1000 nM.

For `CCOC(=O)c1nc(-c2ccc(F)cc2)c(CCN2CCC(=Cc3cccc(F)c3)CC2)s1` [Compound A-09, 2-ethoxycarbonyl-4-(4-fluorophenyl)-5-[2-[4-(3-fluorobenzylidene)piperidin-1-yl]ethyl]thiazole hydrochloride], the half-inhibitory concentration (IC50) at human D4.2 receptor was 13.9 nM; on Dopamine D2 receptor, > 1000 nM.

Turning to `NC(=O)c1nc(-c2ccc(F)cc2)c(CCN2CCC(=Cc3cccc(F)c3)CC2)s1` [Compound A-10, 2-carbamoyl-4-(4-fluorophenyl)-5-[2-[4-(3-fluorobenzylidene)piperidin-1-yl]ethyl]thiazole], the results for the IC50 at human D4.2 receptor and on Dopamine D2 receptor were 4.53 nM and 559 nM, respectively.

For `O=C(O)c1nc(-c2ccc(F)cc2)c(CCN2CCC(=Cc3cccc(F)c3)CC2)s1` [Compound A-11, 2-carboxylic acid-4-(4-fluorophenyl)-5-[2-[4-(3-fluorobenzylidene)piperidin-1-yl]ethyl]thiazole potassium salt], the half-inhibitory concentration (IC50) on human D4.2 receptor was 10.5 nM; at Dopamine D2 receptor, ≥ 1000 nM.

Regarding `NC(=O)c1nc(-c2ccc(F)cc2)c(CCN2CCC(=Cc3ccccc3)CC2)s1` [Compound A-13], the 50% inhibitory concentration (IC50) on human D4.2 receptor was 3.13 nM; on Dopamine D2 receptor, 143 nM.

In the case of `Cc1ccc(C=C2CCN(CCc3sc(C(N)=O)nc3-c3ccc(F)cc3)CC2)cc1` [Compound A-15], the 50% inhibitory concentration (IC50) on human D4.2 receptor was 18.3 nM; at Dopamine D2 receptor it was 433 nM.

With `NC(=O)c1nc(-c2ccccc2)c(CCN2CCC(=Cc3ccc(F)cc3)CC2)s1` [Compound A-17], the IC50 was determined as 5.99 nM at human D4.2 receptor and 628 nM at Dopamine D2 receptor.

Regarding `Cc1ccc(-c2nc(C(N)=O)sc2CCN2CCC(=Cc3ccc(F)cc3)CC2)cc1` [Compound A-20], the results for the IC50 on human D4.2 receptor and at Dopamine D2 receptor were 9.55 nM and 187 nM, respectively.

On to `CCOC(=O)c1nc(-c2ccc(F)cc2)c(CCN2CCC(C(=O)c3ccc(F)cc3)CC2)s1` [Compound A-21], for which the half-inhibitory concentration (IC50) was 3.43 nM on human D4.2 receptor and > 1000 nM on Dopamine D2 receptor.

Take `NC(=O)c1nc(-c2ccc(F)cc2)c(CCN2CCC(C(=O)c3ccc(F)cc3)CC2)s1` [Compound A-22]: the IC50 at human D4.2 receptor was 3.13 nM; at Dopamine D2 receptor, 72.2 nM.
